{"source": "patent US6765010B2", "about": "“Compositions and methods for enhancing analgesic potency of tramadol and attenuating its adverse side effects” (Pain Therapeutics, Inc., priority 1999, dated 2004)", "key": {"[1]": {"test_system": "human subjects/patients with pain following dental surgery", "assay": "Dental surgery pain study: visual analog scale pain intensity difference (VAS-PID, VAS-SPID)", "assay_type": "in vivo", "settings": "LOCF; for Hourly Visual Analog-PID (VAS-PID) score, Mean / Hourly Visual Analog-PID (VAS-PID) score, Median: ITT subjects"}, "[2]": {"test_system": "α2-adrenoreceptors", "settings": "cited from earlier work"}, "[3]": {"test_system": "human subjects/patients with pain following dental surgery", "assay": "Dental surgery pain study: time to onset of meaningful pain relief", "assay_type": "in vivo", "settings": "ITT", "excerpt": "(§1) For this randomized, double-blind, active-controlled and placebo-controlled, parallel-group study, human subjects were randomized into one of the following five treatment groups:\n(§2) A positive control (T, Group 4) was used to determine the sensitivity of the clinical end points. A negative control (placebo, Group 5) was used to establish the frequency and magnitude of changes in clinical end points that may occur in the absence of an active treatment. A single oral dose of study medication was administered when the subject experienced moderate to severe pain following the surgical extraction of three or four third molars. At least one of the molars was required to be mandibular bony impacted.\nA pain assessment was also performed post-treatment. Following dosing, pain intensity and pain relief was recorded at the following times: 30 minutes, 60 minutes and hourly thereafter up to Hour 8 after dosing. All efficacy assessments were recorded by the subject in a diary in response to questioning by the trained observer. […] Pain intensity was measured in response to the question, “How much pain do you have now?” with (1) subject response choices of none, mild, moderate and severe on a categorical scale, and (2) a mark on a 100-mm VAS. […]\nTime to remedication (or rescue medication) was analyzed using the Kaplan-Meier estimate to compute the survival distribution function. […]"}, "[4]": {"test_system": "human subjects/patients with pain following dental surgery", "assay_type": "in vivo"}, "[5]": {"test_system": "human subjects/patients with pain following dental surgery", "assay": "Dental surgery pain study: remedication (rescue medication)", "assay_type": "in vivo", "settings": "ITT", "excerpt": "as §1, §2\nThe subject was then given a rescue medication and discontinued from study. The subject was encouraged to wait at least until Hour 2 after administration of the study medication before using rescue medication. Subjects remedicating earlier than Hour 1 were not included in the analysis for efficacy. Subjects not remedicating during the eight hours of evaluation received a diary card and asked to record the time of remedication after they left the clinic.\nTime to remedication (or rescue medication) was analyzed using the Kaplan-Meier estimate to compute the survival distribution function. The distribution was compared among groups using the Log Rank Test. A subject was considered censored at eight hours if remedication had not occurred. Pairwise comparisons were made using the LIFETEST methodology. Hochberg's procedure was used to control the family-wise type 1 error. Time to Onset of Meaningful Relief (determined by the stopwatch) was similarly analyzed. […] In all the above analyses baseline pain intensity could be used as a stratification factor. […] The sample size was estimated from historical data and from practical considerations rather than from calculation of expected measured differences."}, "[6]": {"test_system": "human subjects/patients with pain following dental surgery", "assay": "Dental surgery pain study: global evaluations", "assay_type": "in vivo", "settings": "ITT", "excerpt": "as §1, §2\nAt the end of eight hours, or at the termination of hourly observations if sooner than eight hours, a global assessment was made by the subject and the observer in response to the question, “How do you rate the pain relief?” with response choices of excellent, very good, good, fair or poor. Assessment of adverse events continued for at least one hour following rescue medication. Subjects not completing at least the Hour 1 observation period were considered not evaluable for efficacy and were replaced."}, "[7]": {"settings": "in vivo, cited from earlier work"}}, "note": "Where two headings read alike, the source gives them in different places."}
{"molecule": "COc1cccc([C@@]2(O)CCCC[C@@H]2CN(C)C)c1.Cl", "note": "(racemic) [tramadol, (1RS,2RS)-2[(dimethylamino)-methyl]-1-(3-methoxyphenyl)-cyclohexanol HCL]", "values": [{"measurement": "Hourly Visual Analog-PID (VAS-PID) score, Mean", "setting": "[1]; Hour 0.5", "value": "−6.16"}, {"measurement": "Hourly Visual Analog-PID (VAS-PID) score, Median", "setting": "[1]; Hour 0.5", "value": "−4"}, {"measurement": "Hourly Visual Analog-PID (VAS-PID) score, Mean", "setting": "[1]; Hour 1", "value": "−7.54"}, {"measurement": "Hourly Visual Analog-PID (VAS-PID) score, Median", "setting": "[1]; Hour 1", "value": "−7"}, {"measurement": "Hourly Visual Analog-PID (VAS-PID) score, Mean", "setting": "[1]; Hour 2", "value": "−2.58"}, {"measurement": "Hourly Visual Analog-PID (VAS-PID) score, Median", "setting": "[1]; Hour 2", "value": "−4"}, {"measurement": "Hourly Visual Analog-PID (VAS-PID) score, Mean", "setting": "[1]; Hour 3", "value": "−1.76"}, {"measurement": "Hourly Visual Analog-PID (VAS-PID) score, Median", "setting": "[1]; Hour 3", "value": "−2"}, {"measurement": "Hourly Visual Analog-PID (VAS-PID) score, Mean", "setting": "[1]; Hour 4", "value": 1.50}, {"measurement": "Hourly Visual Analog-PID (VAS-PID) score, Median", "setting": "[1]; Hour 4", "value": "−2"}, {"measurement": "Hourly Visual Analog-PID (VAS-PID) score, Mean", "setting": "[1]; Hour 5", "value": 1.16}, {"measurement": "Hourly Visual Analog-PID (VAS-PID) score, Median", "setting": "[1]; Hour 5", "value": "−2"}, {"measurement": "Hourly Visual Analog-PID (VAS-PID) score, Mean", "setting": "[1]; Hour 6", "value": 1.36}, {"measurement": "Hourly Visual Analog-PID (VAS-PID) score, Median", "setting": "[1]; Hour 6", "value": "−2"}, {"measurement": "Hourly Visual Analog-PID (VAS-PID) score, Mean", "setting": "[1]; Hour 7", "value": "−1.10"}, {"measurement": "Hourly Visual Analog-PID (VAS-PID) score, Median", "setting": "[1]; Hour 7", "value": "−2"}, {"measurement": "Hourly Visual Analog-PID (VAS-PID) score, Mean", "setting": "[1]; Hour 8", "value": "−0.02"}, {"measurement": "Hourly Visual Analog-PID (VAS-PID) score, Median", "setting": "[1]; Hour 8", "value": "−2"}, {"measurement": "VAS-SPID up to 4 Hours, Mean", "setting": "[1]; ITT, single oral dose", "value": "−16.54"}, {"measurement": "VAS-SPID up to 4 Hours, Median", "setting": "[1]; ITT, single oral dose", "value": "−19"}, {"measurement": "VAS-SPID up to 6 Hours, Mean", "setting": "[1]; ITT, single oral dose", "value": "−14.02"}, {"measurement": "VAS-SPID up to 6 Hours, Median", "setting": "[1]; ITT, single oral dose", "value": "−18"}, {"measurement": "VAS-SPID up to 8 Hours, Mean", "setting": "[1]; ITT, single oral dose", "value": "−15.14"}, {"measurement": "VAS-SPID up to 8 Hours, Median", "setting": "[1]; ITT, single oral dose", "value": "−27"}, {"measurement": "affinity for α2-adrenoreceptors", "setting": "[2]", "value": "does not have affinity"}, {"measurement": "Time to Onset of Meaningful Pain Relief, Median", "setting": "[3]; Kaplan-Meier", "value": 3.85, "unit": "h"}, {"measurement": "Number of Subjects with Meaningful Pain Relief", "setting": "[3]; within 8 hours", "value": 17, "unit": "subjects"}, {"measurement": "Hourly Pain Relief Score (PAR), Mean", "setting": "[4]; Hour 0.5, ITT", "value": 0.28}, {"measurement": "Hourly Pain Relief Score (PAR), Median", "setting": "[4]; Hour 0.5, ITT", "value": 0}, {"measurement": "Hourly Pain Relief Score (PAR), Mean", "setting": "[4]; Hour 1, ITT", "value": 0.40}, {"measurement": "Hourly Pain Relief Score (PAR), Median", "setting": "[4]; Hour 1, ITT", "value": 0}, {"measurement": "Hourly Pain Relief Score (PAR), Mean", "setting": "[4]; Hour 2, ITT", "value": 0.76}, {"measurement": "Hourly Pain Relief Score (PAR), Median", "setting": "[4]; Hour 2, ITT", "value": 0}, {"measurement": "Hourly Pain Relief Score (PAR), Mean", "setting": "[4]; Hour 3, ITT", "value": 0.80}, {"measurement": "Hourly Pain Relief Score (PAR), Median", "setting": "[4]; Hour 3, ITT", "value": 0}, {"measurement": "Hourly Pain Relief Score (PAR), Mean", "setting": "[4]; Hour 4, ITT", "value": 0.94}, {"measurement": "Hourly Pain Relief Score (PAR), Median", "setting": "[4]; Hour 4, ITT", "value": 0}, {"measurement": "Hourly Pain Relief Score (PAR), Mean", "setting": "[4]; Hour 5, ITT", "value": 0.84}, {"measurement": "Hourly Pain Relief Score (PAR), Median", "setting": "[4]; Hour 5, ITT", "value": 0}, {"measurement": "Hourly Pain Relief Score (PAR), Mean", "setting": "[4]; Hour 6, ITT", "value": 0.86}, {"measurement": "Hourly Pain Relief Score (PAR), Median", "setting": "[4]; Hour 6, ITT", "value": 0}, {"measurement": "Hourly Pain Relief Score (PAR), Mean", "setting": "[4]; Hour 7, ITT", "value": 0.82}, {"measurement": "Hourly Pain Relief Score (PAR), Median", "setting": "[4]; Hour 7, ITT", "value": 0}, {"measurement": "Hourly Pain Relief Score (PAR), Mean", "setting": "[4]; Hour 8, ITT", "value": 0.86}, {"measurement": "Hourly Pain Relief Score (PAR), Median", "setting": "[4]; Hour 8, ITT", "value": 0}, {"measurement": "TOTPAR up to 4 Hours, Mean", "setting": "[4]; ITT, single oral dose, LOCF", "value": 3.18}, {"measurement": "TOTPAR up to 4 Hours, Median", "setting": "[4]; ITT, single oral dose, LOCF", "value": 2}, {"measurement": "TOTPAR up to 6 Hours, Mean", "setting": "[4]; ITT, single oral dose, LOCF", "value": 4.88}, {"measurement": "TOTPAR up to 6 Hours, Median", "setting": "[4]; ITT, single oral dose, LOCF", "value": 2}, {"measurement": "TOTPAR up to 8 Hours, Mean", "setting": "[4]; ITT, single oral dose, LOCF", "value": 6.56}, {"measurement": "TOTPAR up to 8 Hours, Median", "setting": "[4]; ITT, single oral dose, LOCF", "value": 2}, {"measurement": "Time to Remedication up to 8 Hours, Median", "setting": "[5]; Kaplan-Meier", "value": 2.48, "unit": "h"}, {"measurement": "Time to Remedication up to 24 Hours, Median", "setting": "[5]; Kaplan-Meier", "value": 2.48, "unit": "h"}, {"measurement": "Percent of Subject who take Remedication up to 8 hours, No", "setting": "[5]; first section of Table 9", "value": "15 (30.0%) n (%)"}, {"measurement": "Percent of Subject who take Remedication up to 8 hours, Yes", "setting": "[5]; first section of Table 9", "value": "35 (70.0%) n (%)"}, {"measurement": "Percent of Subject who take Remedication up to 8 hours, No", "setting": "[5]; second section of Table 9", "value": "8 (16.0%) n (%)"}, {"measurement": "Percent of Subject who take Remedication up to 8 hours, Yes", "setting": "[5]; second section of Table 9", "value": "42 (84.0%) n (%)"}, {"measurement": "Number of Subjects taken Rescue Medication", "setting": "[5]; up to 8 Hours", "value": 35, "unit": "subjects"}, {"measurement": "Number of Subjects taken Rescue Medication", "setting": "[5]; up to 24 Hours", "value": 42, "unit": "subjects"}, {"measurement": "Global Evaluation, Observer Evaluation: Excellent", "setting": "[6]", "value": "2 (4.0%) n (%)"}, {"measurement": "Global Evaluation, Observer Evaluation: Fair", "setting": "[6]", "value": "13 (26.0%) n (%)"}, {"measurement": "Global Evaluation, Observer Evaluation: Good", "setting": "[6]", "value": "5 (10.0%) n (%)"}, {"measurement": "Global Evaluation, Observer Evaluation: Poor", "setting": "[6]", "value": "25 (50.0%) n (%)"}, {"measurement": "Global Evaluation, Observer Evaluation: Very Good", "setting": "[6]", "value": "5 (10.0%) n (%)"}, {"measurement": "Global Evaluation, Subject Evaluation: Excellent", "setting": "[6]", "value": "1 (2.0%) n (%)"}, {"measurement": "Global Evaluation, Subject Evaluation: Fair", "setting": "[6]", "value": "13 (26.0%) n (%)"}, {"measurement": "Global Evaluation, Subject Evaluation: Good", "setting": "[6]", "value": "4 (8.0%) n (%)"}, {"measurement": "Global Evaluation, Subject Evaluation: Poor", "setting": "[6]", "value": "26 (52.0%) n (%)"}, {"measurement": "Global Evaluation, Subject Evaluation: Very Good", "setting": "[6]", "value": "6 (12.0%) n (%)"}, {"measurement": "potency relative to morphine", "setting": "[7]; iv", "value": "approximately one-tenth"}, {"measurement": "oral analgesic potency versus morphine", "setting": "[7]; po", "value": "equipotent to oral morphine 30 mg"}]}
